Laboratory results taken from patent publication US20090298834A1, “4-(AMINOMETHYL)CYCLOHEXANAMINE DERIVATIVES AS CALCIUM CHANNEL BLOCKERS” (priority 2008, published 2009).

Legend:
[1] = target: T1, human α1G T-type channels (Homo sapiens, UniProt O43497); experiment: T-type calcium channel block, whole cell patch clamp (α1G); type: cell-based; details: HEK cells stably expressing human α1G; mainly non-inactivated protocol; values above 10 μM represented as 10 μM, values below 0.30 μM represented as 0.30 μM
T1 construct: expressed in transfected cells; host or cells: HEK 293
Summary of the method: (§1)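 Resting block was measured mainly with the non-inactivated protocol: holding potential −110 mV, 1 s step to −100 mV, then a 50 ms test pulse at −40 mV. Recordings used stably transfected human α1G or α1H HEK293 lines, with compounds perfused in external solution containing 0.1-0.01% DMSO. IC50 values (μM) above 10 μM are reported as 10 μM.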

[2] = target: T2, human α1H T-type channels (Homo sapiens, UniProt O95180); experiment: T-type calcium channel block, whole cell patch clamp (α1H); type: cell-based; details: HEK cells stably expressing human α1H; mainly non-inactivated protocol; values above 10 μM represented as 10 μM
T2 construct: expressed in transfected cells; host or cells: HEK 293
Summary of the method: as §1

T1 sequence (O43497 whole entry): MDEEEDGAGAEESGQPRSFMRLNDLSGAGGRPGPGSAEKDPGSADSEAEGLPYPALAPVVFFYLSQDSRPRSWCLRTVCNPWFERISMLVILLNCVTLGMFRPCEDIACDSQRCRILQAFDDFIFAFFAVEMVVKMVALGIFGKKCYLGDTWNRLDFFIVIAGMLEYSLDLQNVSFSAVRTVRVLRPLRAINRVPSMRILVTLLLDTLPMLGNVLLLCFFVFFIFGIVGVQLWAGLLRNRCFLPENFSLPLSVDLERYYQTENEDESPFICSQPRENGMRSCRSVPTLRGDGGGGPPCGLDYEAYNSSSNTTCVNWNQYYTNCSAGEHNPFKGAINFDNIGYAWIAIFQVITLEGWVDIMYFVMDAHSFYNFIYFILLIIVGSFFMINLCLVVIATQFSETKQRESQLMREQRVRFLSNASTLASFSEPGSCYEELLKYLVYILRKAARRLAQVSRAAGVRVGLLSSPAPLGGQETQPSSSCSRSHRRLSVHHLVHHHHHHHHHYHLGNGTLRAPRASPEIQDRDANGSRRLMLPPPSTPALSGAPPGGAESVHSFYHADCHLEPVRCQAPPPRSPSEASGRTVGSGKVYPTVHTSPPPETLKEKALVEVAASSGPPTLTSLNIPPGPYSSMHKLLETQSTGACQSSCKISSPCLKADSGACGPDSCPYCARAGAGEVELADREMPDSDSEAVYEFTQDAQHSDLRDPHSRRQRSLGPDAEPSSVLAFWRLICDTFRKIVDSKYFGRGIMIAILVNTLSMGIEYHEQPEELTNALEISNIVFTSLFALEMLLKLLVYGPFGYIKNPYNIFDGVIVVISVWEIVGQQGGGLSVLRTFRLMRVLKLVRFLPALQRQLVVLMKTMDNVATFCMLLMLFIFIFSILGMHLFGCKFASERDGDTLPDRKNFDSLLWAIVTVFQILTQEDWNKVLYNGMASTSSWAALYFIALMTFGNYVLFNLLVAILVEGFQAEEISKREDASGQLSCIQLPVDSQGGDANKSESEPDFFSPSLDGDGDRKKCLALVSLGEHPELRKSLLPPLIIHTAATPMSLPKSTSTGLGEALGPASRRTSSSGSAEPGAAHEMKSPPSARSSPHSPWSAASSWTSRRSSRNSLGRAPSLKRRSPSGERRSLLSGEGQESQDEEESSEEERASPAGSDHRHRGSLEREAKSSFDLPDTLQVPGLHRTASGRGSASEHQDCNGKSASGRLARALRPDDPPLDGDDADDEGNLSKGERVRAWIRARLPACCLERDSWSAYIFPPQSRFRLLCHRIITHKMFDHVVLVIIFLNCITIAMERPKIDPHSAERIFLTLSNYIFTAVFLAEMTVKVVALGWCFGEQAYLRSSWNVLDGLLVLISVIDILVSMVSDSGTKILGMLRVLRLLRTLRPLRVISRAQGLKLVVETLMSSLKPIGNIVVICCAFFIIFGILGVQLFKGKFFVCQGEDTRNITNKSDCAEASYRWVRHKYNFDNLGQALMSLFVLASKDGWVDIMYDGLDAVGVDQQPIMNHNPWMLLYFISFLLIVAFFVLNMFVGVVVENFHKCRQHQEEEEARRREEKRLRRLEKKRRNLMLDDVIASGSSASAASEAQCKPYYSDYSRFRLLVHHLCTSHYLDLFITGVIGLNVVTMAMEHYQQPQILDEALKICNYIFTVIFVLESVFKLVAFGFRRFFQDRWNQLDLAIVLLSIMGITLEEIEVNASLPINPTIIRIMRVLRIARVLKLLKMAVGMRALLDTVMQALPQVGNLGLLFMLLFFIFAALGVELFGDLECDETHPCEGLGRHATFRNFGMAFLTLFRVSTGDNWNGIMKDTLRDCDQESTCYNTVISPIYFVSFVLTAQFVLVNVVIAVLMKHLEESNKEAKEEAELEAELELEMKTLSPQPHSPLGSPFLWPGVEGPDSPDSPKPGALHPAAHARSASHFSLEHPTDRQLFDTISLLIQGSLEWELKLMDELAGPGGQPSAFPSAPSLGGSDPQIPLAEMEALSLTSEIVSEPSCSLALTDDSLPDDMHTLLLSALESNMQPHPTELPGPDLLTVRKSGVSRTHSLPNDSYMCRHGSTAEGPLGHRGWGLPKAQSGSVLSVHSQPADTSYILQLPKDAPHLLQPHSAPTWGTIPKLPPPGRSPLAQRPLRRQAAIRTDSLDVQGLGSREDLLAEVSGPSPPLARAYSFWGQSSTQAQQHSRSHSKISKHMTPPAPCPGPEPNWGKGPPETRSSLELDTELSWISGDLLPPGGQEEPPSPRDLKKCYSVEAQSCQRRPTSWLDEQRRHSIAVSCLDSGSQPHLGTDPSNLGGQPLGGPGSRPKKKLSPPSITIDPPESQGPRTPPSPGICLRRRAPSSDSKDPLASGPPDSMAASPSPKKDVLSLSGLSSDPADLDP
T2 sequence (O95180 whole entry): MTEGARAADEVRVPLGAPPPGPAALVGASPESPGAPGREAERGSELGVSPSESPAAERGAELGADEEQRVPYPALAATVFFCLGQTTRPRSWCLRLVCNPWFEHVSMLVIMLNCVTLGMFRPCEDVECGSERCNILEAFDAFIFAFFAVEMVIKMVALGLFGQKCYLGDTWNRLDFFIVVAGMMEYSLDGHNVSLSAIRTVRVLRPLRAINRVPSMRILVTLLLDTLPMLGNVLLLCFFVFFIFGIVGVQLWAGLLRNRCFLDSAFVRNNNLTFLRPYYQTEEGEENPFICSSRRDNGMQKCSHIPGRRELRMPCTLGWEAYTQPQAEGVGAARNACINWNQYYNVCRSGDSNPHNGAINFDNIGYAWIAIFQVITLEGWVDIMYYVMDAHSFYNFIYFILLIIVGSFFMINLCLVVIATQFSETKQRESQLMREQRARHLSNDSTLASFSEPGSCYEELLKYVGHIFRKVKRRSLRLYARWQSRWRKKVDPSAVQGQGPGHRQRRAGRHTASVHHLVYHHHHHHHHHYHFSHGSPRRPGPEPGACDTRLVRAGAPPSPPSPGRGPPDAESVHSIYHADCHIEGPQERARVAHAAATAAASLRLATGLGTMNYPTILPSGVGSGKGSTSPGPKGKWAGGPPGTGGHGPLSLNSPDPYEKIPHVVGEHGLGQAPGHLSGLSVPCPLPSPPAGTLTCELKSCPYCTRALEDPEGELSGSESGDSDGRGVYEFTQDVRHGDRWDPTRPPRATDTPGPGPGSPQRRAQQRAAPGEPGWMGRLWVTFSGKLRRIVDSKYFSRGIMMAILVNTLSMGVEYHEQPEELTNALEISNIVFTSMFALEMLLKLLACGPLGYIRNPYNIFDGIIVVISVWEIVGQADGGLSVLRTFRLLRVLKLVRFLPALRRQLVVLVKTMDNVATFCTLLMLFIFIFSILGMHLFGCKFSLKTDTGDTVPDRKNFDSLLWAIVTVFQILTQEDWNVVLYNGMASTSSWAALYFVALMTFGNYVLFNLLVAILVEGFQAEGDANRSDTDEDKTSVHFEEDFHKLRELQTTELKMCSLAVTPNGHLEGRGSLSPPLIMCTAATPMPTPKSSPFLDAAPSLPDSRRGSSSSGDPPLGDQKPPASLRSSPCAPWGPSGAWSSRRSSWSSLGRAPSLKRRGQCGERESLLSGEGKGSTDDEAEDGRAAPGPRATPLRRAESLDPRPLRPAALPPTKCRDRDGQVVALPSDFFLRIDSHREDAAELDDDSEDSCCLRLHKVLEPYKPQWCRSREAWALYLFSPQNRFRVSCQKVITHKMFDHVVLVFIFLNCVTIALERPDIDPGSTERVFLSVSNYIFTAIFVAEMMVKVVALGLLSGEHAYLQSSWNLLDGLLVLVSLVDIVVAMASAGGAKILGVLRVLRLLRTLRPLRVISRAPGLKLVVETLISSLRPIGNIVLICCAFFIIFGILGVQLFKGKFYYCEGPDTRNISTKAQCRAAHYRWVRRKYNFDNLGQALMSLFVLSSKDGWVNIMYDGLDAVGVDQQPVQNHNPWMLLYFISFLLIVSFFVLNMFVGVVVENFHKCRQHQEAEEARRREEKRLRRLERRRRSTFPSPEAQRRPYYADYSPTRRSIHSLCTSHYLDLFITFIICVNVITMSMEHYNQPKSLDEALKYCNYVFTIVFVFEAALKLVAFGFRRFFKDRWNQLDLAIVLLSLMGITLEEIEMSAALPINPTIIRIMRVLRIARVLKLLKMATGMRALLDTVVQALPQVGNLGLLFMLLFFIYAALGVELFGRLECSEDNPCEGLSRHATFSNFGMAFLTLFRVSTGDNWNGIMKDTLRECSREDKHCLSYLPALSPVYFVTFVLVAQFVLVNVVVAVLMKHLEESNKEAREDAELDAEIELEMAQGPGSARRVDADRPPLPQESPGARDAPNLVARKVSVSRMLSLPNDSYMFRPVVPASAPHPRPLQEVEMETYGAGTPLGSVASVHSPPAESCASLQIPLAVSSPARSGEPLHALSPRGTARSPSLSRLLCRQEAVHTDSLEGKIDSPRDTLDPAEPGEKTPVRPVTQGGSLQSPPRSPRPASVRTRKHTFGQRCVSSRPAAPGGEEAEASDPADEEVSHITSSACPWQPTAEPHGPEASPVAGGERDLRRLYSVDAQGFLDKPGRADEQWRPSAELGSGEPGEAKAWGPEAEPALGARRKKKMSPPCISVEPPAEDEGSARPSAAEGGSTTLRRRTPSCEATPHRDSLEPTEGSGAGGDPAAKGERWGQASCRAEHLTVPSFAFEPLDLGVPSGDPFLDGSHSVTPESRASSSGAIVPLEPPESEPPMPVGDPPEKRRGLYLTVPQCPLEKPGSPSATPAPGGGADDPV

Compound	IC50 [1] [µM]	IC50 [2] [µM]
CC(C)(C)NC(=O)CN[C@H]1CC[C@H](CNC(=O)c2cc(C(F)(F)F)cc(C(F)(F)F)c2)CC1 [Compound 55, N-((trans-4-(2-(tert-butylamino)-2-oxoethylamino)cyclohexyl)methyl)-3,5-bis(trifluoromethyl)benzamide]	≤ 0.3	0.37
CCN(CC)C(=O)CN[C@H]1CC[C@H](CNC(=O)c2cc(C(F)(F)F)cc(C(F)(F)F)c2)CC1 [Compound 56, N-((trans-4-(2-(diethylamino)-2-oxoethylamino)cyclohexyl)methyl)-3,5-bis(trifluoromethyl)benzamide]	0.44	0.59
CCC(CC)NC(=O)CN[C@H]1CC[C@H](CNC(=O)c2cc(C(F)(F)F)cc(C(F)(F)F)c2)CC1 [Compound 57, N-((trans-4-(2-oxo-2-(pentan-3-ylamino)ethylamino)cyclohexyl)methyl)-3,5-bis(trifluoromethyl)benzamide]	≤ 0.3	0.43
O=C(CN[C@H]1CC[C@H](CNC(=O)c2cc(C(F)(F)F)cc(C(F)(F)F)c2)CC1)NCC(F)(F)F [Compound 58, N-((trans-4-(2-oxo-2-(2,2,2-trifluoroethylamino)ethylamino)cyclohexyl)methyl)-3,5-bis(trifluoromethyl)benzamide]	1	0.53
CN(C(=O)CN[C@H]1CC[C@H](CNC(=O)c2cc(C(F)(F)F)cc(C(F)(F)F)c2)CC1)C1CCCC1 [Compound 59, N-((trans-4-(2-(cyclopentyl(methyl)amino)-2-oxoethylamino)cyclohexyl)methyl)-3,5-bis(trifluoromethyl)benzamide]	≤ 0.3	0.62
O=C(CN[C@H]1CC[C@H](CNC(=O)c2cc(C(F)(F)F)cc(C(F)(F)F)c2)CC1)NN1CCCCC1 [Compound 60, N-((trans-4-(2-oxo-2-(piperidin-1-ylamino)ethylamino)cyclohexyl)methyl)-3,5-bis(trifluoromethyl)benzamide]	1.3	1.89
O=C(NC[C@H]1CC[C@H](NCC(=O)N2CCC(F)(F)C2)CC1)c1cc(C(F)(F)F)cc(C(F)(F)F)c1 [Compound 61, N-((trans-4-(2-(3,3-difluoropyrrolidin-1-yl)-2-oxoethylamino)cyclohexyl)methyl)-3,5-bis(trifluoromethyl)benzamide]	1.59	1.73
C#CC(CC)(CC)NC(=O)CN[C@H]1CC[C@H](CNC(=O)c2cc(C(F)(F)F)cc(C(F)(F)F)c2)CC1 [Compound 62, N-((trans-4-(2-(3-ethylpent-1-yn-3-ylamino)-2-oxoethylamino)cyclohexyl)methyl)-3,5-bis(trifluoromethyl)benzamide]	≤ 0.3	0.31
COC1CCC(N(C)C(=O)CN[C@H]2CC[C@H](CNC(=O)c3cc(C(F)(F)F)cc(C(F)(F)F)c3)CC2)CC1 (stereo partly drawn) [Compound 65, N-((trans-4-(2-((4-methoxycyclohexyl)(methyl)amino)-2-oxoethylamino)cyclohexyl)methyl)-3,5-bis(trifluoromethyl)benzamide]	8.02	7.36
CC(C)(C)c1nc(CN[C@H]2CC[C@H](CNC(=O)c3cc(C(F)(F)F)cc(C(F)(F)F)c3)CC2)no1 [Compound 66, N-((trans-4-((5-tert-butyl-1,2,4-oxadiazol-3-yl)methylamino)cyclohexyl)methyl)-3,5-bis(trifluoromethyl)benzamide]	1.34	3.05
Cc1cc(CN[C@H]2CC[C@H](CNC(=O)c3cc(C(F)(F)F)cc(C(F)(F)F)c3)CC2)no1 [Compound 67, N-((trans-4-((5-methylisoxazol-3-yl)methylamino)cyclohexyl)methyl)-3,5-bis(trifluoromethyl)benzamide]	5.59	2.89
CCC1CCCN1C(=O)CN[C@H]1CC[C@H](CNC(=O)c2cc(C(F)(F)F)cc(C(F)(F)F)c2)CC1 (stereo partly drawn) [Compound 68, N-((trans-4-(2-(2-ethylpyrrolidin-1-yl)-2-oxoethylamino)cyclohexyl)methyl)-3,5-bis(trifluoromethyl)benzamide]	≤ 0.3	0.56
CC(C)CNC(=O)CN[C@H]1CC[C@@H](CNC(=O)c2cc(C(F)(F)F)cc(C(F)(F)F)c2)CC1 [Compound 70, N-((cis-4-(2-(isobutylamino)-2-oxoethylamino)cyclohexyl)methyl)-3,5-bis(trifluoromethyl)benzamide]	0.33	0.21
CCC(C)NC(=O)CN[C@H]1CC[C@@H](CNC(=O)c2cc(C(F)(F)F)cc(C(F)(F)F)c2)CC1 (stereo partly drawn) [Compound 71, N-((cis-4-(2-(sec-butylamino)-2-oxoethylamino)cyclohexyl)methyl)-3,5-bis(trifluoromethyl)benzamide]	≤ 0.3	0.27
CC1CCCCN1C(=O)CN[C@H]1CC[C@@H](CNC(=O)c2cc(C(F)(F)F)cc(C(F)(F)F)c2)CC1 (stereo partly drawn) [Compound 72, N-((cis-4-(2-(2-methylpiperidin-1-yl)-2-oxoethylamino)cyclohexyl)methyl)-3,5-bis(trifluoromethyl)benzamide]	≤ 0.3	0.23
Cc1ccc(NC(=O)CN[C@H]2CC[C@@H](CNC(=O)c3cc(C(F)(F)F)cc(C(F)(F)F)c3)CC2)nc1 [Compound 73, N-((cis-4-(2-(5-methylpyridin-2-ylamino)-2-oxoethylamino)cyclohexyl)methyl)-3,5-bis(trifluoromethyl)benzamide]	0.31	0.7
CC(C)NC(=O)CN[C@H]1CC[C@H](CNC(=O)c2cc(C(F)(F)F)cc(C(F)(F)F)c2)CC1 [Compound 74, N-((trans-4-(2-(isopropylamino)-2-oxoethylamino)cyclohexyl)methyl)-3,5-bis(trifluoromethyl)benzamide]	2.35	0.65
CC(C)CNC(=O)CN[C@H]1CC[C@H](CNC(=O)c2cc(C(F)(F)F)cc(C(F)(F)F)c2)CC1 [Compound 75, N-((trans-4-(2-(isobutylamino)-2-oxoethylamino)cyclohexyl)methyl)-3,5-bis(trifluoromethyl)benzamide]	0.81	0.43
CC1CCCCN1C(=O)CN[C@H]1CC[C@H](CNC(=O)c2cc(C(F)(F)F)cc(C(F)(F)F)c2)CC1 (stereo partly drawn) [Compound 76, N-((trans-4-(2-(2-methylpiperidin-1-yl)-2-oxoethylamino)cyclohexyl)methyl)-3,5-bis(trifluoromethyl)benzamide]	≤ 0.3	0.615
Cc1ccc(NC(=O)CN[C@H]2CC[C@H](CNC(=O)c3cc(C(F)(F)F)cc(C(F)(F)F)c3)CC2)nc1 [Compound 77, N-((trans-4-(2-(5-methylpyridin-2-ylamino)-2-oxoethylamino)cyclohexyl)methyl)-3,5-bis(trifluoromethyl)benzamide]	0.73	1.14
O=C(CNC[C@H]1CC[C@H](NC(=O)c2cc(C(F)(F)F)cc(C(F)(F)F)c2)CC1)NCC(F)(F)F [Compound 82, N-(trans-4-((2-oxo-2-(2,2,2-trifluoroethylamino)ethylamino)methyl)cyclohexyl)-3,5-bis(trifluoromethyl)benzamide]	2.54	2.09
CC(C)(C)c1nc(CNC[C@H]2CC[C@H](NC(=O)c3cc(C(F)(F)F)cc(C(F)(F)F)c3)CC2)no1 [Compound 89, N-(trans-4-(((5-tert-butyl-1,2,4-oxadiazol-3-yl)methylamino)methyl)cyclohexyl)-3,5-bis(trifluoromethyl)benzamide]	1.37	1.95
Cc1cc(CNC[C@H]2CC[C@H](NC(=O)c3cc(C(F)(F)F)cc(C(F)(F)F)c3)CC2)no1 [Compound 90, N-(trans-4-(((5-methylisoxazol-3-yl)methylamino)methyl)cyclohexyl)-3,5-bis(trifluoromethyl)benzamide]	3.47	3.86
CC(C)CNC(=O)CNC[C@H]1CC[C@H](NC(=O)c2cc(C(F)(F)F)cc(C(F)(F)F)c2)CC1 [Compound 93, N-(trans-4-((2-(isobutylamino)-2-oxoethylamino)methyl)cyclohexyl)-3,5-bis(trifluoromethyl)benzamide]	1.38	1.71
O=C(CNC[C@H]1CC[C@H](NC(=O)c2cc(C(F)(F)F)cc(C(F)(F)F)c2)CC1)Nc1ccccn1 [Compound 96, N-(trans-4-((2-oxo-2-(pyridin-2-ylamino)ethylamino)methyl)cyclohexyl)-3,5-bis(trifluoromethyl)benzamide]	0.54	1.04
CC(C)(C)OC(=O)NCCN[C@H]1CC[C@@H](CNC(=O)c2cc(F)cc(C(F)(F)F)c2)CC1 [Compound 97, tert-butyl 2-(cis-4-((3-fluoro-5-(trifluoromethyl)benzamido)methyl)cyclohexylamino)ethylcarbamate]	0.9	0.9
CC(C)(C)OC(=O)NCCN[C@H]1CC[C@@H](CNC(=O)c2cc(C(F)(F)F)cc(C(F)(F)F)c2)CC1 [Compound 98, tert-butyl 2-(cis-4-((3,5-bis(trifluoromethyl)benzamido)methyl)cyclohexylamino)ethylcarbamate]	0.41	0.78
COc1cc(C(=O)NC[C@H]2CC[C@@H](NCCNC(=O)OC(C)(C)C)CC2)cc(C(F)(F)F)c1 [Compound 100, tert-butyl 2-(cis-4-((3-methoxy-5-(trifluoromethyl)benzamido)methyl)cyclohexylamino)ethylcarbamate]	1.03	0.85
CC(C)(C)CC(=O)NCCN[C@H]1CC[C@H](CNC(=O)c2cc(C(F)(F)F)cc(C(F)(F)F)c2)CC1 [Compound 101, N-((trans-4-(2-(3,3-dimethylbutanamido)ethylamino)cyclohexyl)methyl)-3,5-bis(trifluoromethyl)benzamide]	1.51	2.05
